“Also recorded” adds a separate entry of the source.
Tests used:
STING = STING (Homo sapiens, UniProt Q86WV6, G230A/H232R/R293Q/R71H); assay: ISG54 (IRF pathway) reporter assay in THP1-Dual cells; conditions: for EC50 rank order (lipid chain length): FIG. 6, human or murine reporter cell
Type I IFNs = assay: Whole-blood assay, type I IFN induction (HEK-Blue IFN-α/β-KO-STING readout); format: cell-based, human; conditions: for EC50: whole blood assay, type I IFN, read-out: EC50 (μM) IFN in WBA; for induction of type I IFNs in whole-blood assay (comparison in words): healthy human donors, dose-response
Excerpt: Type I IFNs: HEK-Blue™ IFN-α/β-KO-STING: These cells, in which the STING gene has been inactivated, are derived from HEK293 cell line known as HEK-Blue™ IFN-α/β (InvivoGen catalog code: hkb-ifnab). HEK-Blue™ IFN-α/β cells enable detection of bioactive human type I IFNs through monitoring of activation of the […]. These cells were generated by stable transfection of HEK293 cells with the human STAT2 and IRF9 genes to obtain a fully active Type-I IFN signaling pathway. The other genes of the pathway (IFNAR1, IFNAR2, JAK1, TyK2 and STAT1) are naturally expressed in sufficient amounts. The cells were further transfected with a SEAP reporter gene under control of an IFNα/β-inducible ISG54 promoter. This promoter comprises five IFN-stimulated response elements (ISREs) fused to a minimal promoter of the human ISG54 gene, which is unresponsive to activators of the NF-κB or AP-1 pathways. Stimulation of HEK-Blue™ IFN-α/β cells with human IFN-α or IFN-β activates the JAK/STAT/ISGF3 pathway and subsequently induces production of SEAP. Production of type I IFNs in these cells is measured using QUANTI-Blue™.
Briefly, the samples were collected by venipuncture into sodium heparin tubes at the time of donation. The samples were analyzed for rhesus (Rh), blood group, hematocrit and serological status (AgHBS, HIV, HCV, HTLV, HBC, CMV, Syph). The tubes were picked up on the day of collection and subsequently tested (blood analysis, and treatment with test items) on the same day.
Each blood sample was diluted (1:2 [v/v]) in RPMI medium and aliquoted into 96-well plates (180-μL wells) containing either CDN (√10-fold serial dilution starting from 50 μM). The plates were incubated at 37° C. in a 5% CO2 incubator for 18 hours. Then, the supernatants were collected, transferred into the corresponding wells of round-bottom 96-well plates, and either stored at −80° C., or immediately tested in the appropriate reporter cell line.
A new 96-wells plate was prepared for each reporter cell lines tested, as follows: 10 μL of supernatant from the previous plate were added to the corresponding well in the new reporter cell plate. Then, a 190-μL aliquot of cells of the desired reporter cell line, previously harvested in medium containing heat-inactivated serum and counted, was added to each well (approximately 50,000 cells/well), and the plate was incubated for approximately 20 hours. The desired cytokine induction activity was determined using the QUANTI-Blue™ assay, as previously described. Briefly, 20 μL of supernatant from the previously incubated plate was transferred to the corresponding well of a new 96-well plate in which 180 μL of QUANTI-Blue™ reagent had previously been added.

[1] = Lipid-based nanoparticle formation (PdI, Z Ave); format: physicochemical; conditions: for Z Ave (nm): lipid BAM-CDN particles; for PdI: polydispersity index of lipid BAM-CDN

STING, sequence (Q86WV6 whole entry R71H/G230A/H232R/R293Q): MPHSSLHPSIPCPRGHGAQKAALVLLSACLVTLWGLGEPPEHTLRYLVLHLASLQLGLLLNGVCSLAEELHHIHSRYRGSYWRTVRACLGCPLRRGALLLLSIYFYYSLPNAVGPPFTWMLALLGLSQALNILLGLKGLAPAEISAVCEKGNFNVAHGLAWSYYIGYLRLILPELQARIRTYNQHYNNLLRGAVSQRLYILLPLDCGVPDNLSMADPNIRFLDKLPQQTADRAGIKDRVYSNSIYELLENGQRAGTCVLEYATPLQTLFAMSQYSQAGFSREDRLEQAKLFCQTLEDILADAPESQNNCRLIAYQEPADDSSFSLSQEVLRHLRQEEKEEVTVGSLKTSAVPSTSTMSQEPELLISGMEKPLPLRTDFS

Q: With `CC(C)[C@H](NC(=O)COCCOCCNC(=O)COCCOCCNC(=O)COCCOCCNC(=O)COCCOCCN)C(=O)N[C@H](C)C(=O)Nc1ccc(CSP2(=O)OC[C@H]3O[C@@H](n4cnc5c(N)ncnc54)[C@H](F)[C@@H]3OP(=O)(O)OC[C@H]3O[C@@H](n4cnc5c(O)ncnc54)C[C@@H]3O2)cc1` (some centres unmarked) [CL822] as the compound, how does the “Fold ISG induction vs unstimulated @10 μM” value (from here on “Fold ISG induction”) (STING; THP1-Dual cells) read?
A: 29 fold

Q: With `CCCCCCCCCCCCCC(=O)OC(CCCCCCCCCCC)CC(=O)N[C@H](C(=O)N[C@@H](CCCNC(N)=O)C(=O)Nc1ccc(CSP2(=O)OC[C@H]3O[C@@H](n4cnc5c(N)ncnc54)[C@H](F)[C@@H]3OP(=O)(O)OC[C@H]3O[C@@H](n4cnc5c(O)ncnc54)[C@H](F)[C@@H]3O2)cc1)C(C)C` (some centres unmarked) [CL860] as the compound, how does the EC50 (Type I IFNs) read?
A: 0.009 µM

Q: And the “self-organization in lipid-based nanoparticles / particle size” value [1]?
A: can self-organize/assemble in lipid-based nanoparticles; also recorded: the size tends to be smaller, around the size of Small Unilamellar Vesicle

Q: What about the “Z Ave (nm)” value [1] of the same compound?
A: 33 nm

Q: What about the PdI [1] of the same compound?
A: 0.248

Q: With `Nc1ncnc2c1ncn2[C@@H]1O[C@@H]2COP(=O)(S)O[C@H]3C[C@H](n4cnc5c(=O)[nH]cnc54)O[C@@H]3COP(=O)(S)O[C@H]2[C@H]1F` (some centres unmarked) [CL702, reference compound] as the compound, how does the “induction of type I IFNs in whole-blood assay (comparison in words)” value (Type I IFNs) read?
A: superior induction of type I interferons compared to the reference compound 2′3′-cGAMP

Q: For `CC(C)[C@H](NC(=O)CCCCCN1C(=O)C=CC1=O)C(=O)N[C@@H](C)C(=O)Nc1ccc(CSP2(=O)OC[C@H]3O[C@@H](n4cnc5c(N)ncnc54)[C@H](F)[C@@H]3OP(=O)(O)OC[C@H]3O[C@@H](n4cnc5c(O)ncnc54)C[C@@H]3O2)cc1` (some centres unmarked) [CL843], which “Fold ISG induction” value (STING; THP1-Dual cells) is on record?
A: 16 fold

Q: What does the source list for `CC(C)[C@H](NC(=O)[C@@H](CN)N1C(=O)C=CC1=O)C(=O)N[C@@H](C)C(=O)Nc1ccc(CSP2(=O)OC[C@H]3O[C@@H](n4cnc5c(N)ncnc54)[C@H](F)[C@@H]3OP(=O)(S)OC[C@H]3O[C@@H](n4cnc5c(O)ncnc54)[C@H](F)[C@@H]3O2)cc1` (some centres unmarked) [CL874]?
A: % activity (vs cGAMP) (STING): 297%; Fold ISG induction vs unstimulated @10 μM (STING; THP1-Dual cells): 156 fold; ISG activity (STING; THP1-Dual cells): retains full 15G activity

Q: For `COC(=O)C1O[C@@H](Oc2ccc(CSP3(=O)OC[C@H]4O[C@@H](n5cnc6c(N)ncnc65)[C@H](F)[C@@H]4OP(=O)(O)OC[C@H]4O[C@@H](n5cnc6c(O)ncnc65)C[C@@H]4O3)cc2[N+](=O)[O-])C(OC(C)=O)C(OC(C)=O)[C@@H]1OC(C)=O` (some centres unmarked) [CL831], which “Fold ISG induction” value (STING; THP1-Dual cells) is on record?
A: 6 fold

Q: With `CCCCCCCCCCCCCC(=O)OC(CCCCCCCCCCC)CC(=O)N[C@H](C(=O)N[C@@H](C)C(=O)Nc1ccc(CSP2(=O)OC[C@H]3O[C@@H](n4cnc5c(N)ncnc54)[C@H](F)[C@@H]3OP(=O)(O)OC[C@H]3O[C@@H](n4cnc5c(O)ncnc54)C[C@@H]3O2)cc1)C(C)C` (some centres unmarked) [CL838] as the compound, how does the EC50 (Type I IFNs) read?
A: 0.009 µM

Q: What about the “self-organization in lipid-based nanoparticles / particle size” value [1] of the same compound?
A: can self-organize/assemble in lipid-based nanoparticles

Q: What about the “Z Ave (nm)” value [1] of the same compound?
A: 91 nm

Q: And the PdI [1]?
A: 0.214

Q: For `CCCCCCCC(=O)N[C@H](C(=O)N[C@@H](C)C(=O)Nc1ccc(CSP2(=O)OC[C@H]3O[C@@H](n4cnc5c(N)ncnc54)[C@H](F)[C@@H]3OP(=O)(S)OC[C@H]3O[C@@H](n4cnc5c(O)ncnc54)[C@H](F)[C@@H]3O2)cc1)C(C)C` (some centres unmarked) [CL840], which EC50 (Type I IFNs) is on record?
A: 0.13 µM

Q: And the “Z Ave (nm)” value [1]?
A: 168.9 nm

Q: What about the PdI [1] of the same compound?
A: 0.08

Q: For `CC(C)[C@H](N)C(=O)N[C@@H](C)C(=O)Nc1ccc(CSP2(=O)OC[C@H]3O[C@@H](n4cnc5c(N)ncnc54)[C@H](F)[C@@H]3OP(=O)(O)OC[C@H]3O[C@@H](n4cnc5c(O)ncnc54)C[C@@H]3O2)cc1` (some centres unmarked) [CL819], which “EC50 rank order (lipid chain length)” value (STING) is on record?
A: EC50 (CL819=C2-CL797)=EC50 (CL797)

Q: With `CC(C)[C@H](NC(=O)OC(C)(C)C)C(=O)N[C@@H](CCCNC(N)=O)C(=O)Nc1ccc(CSP2(=O)OC[C@H]3O[C@@H](n4cnc5c(=O)[nH]cnc54)C[C@@H]3OP(=O)(SCc3ccc(NC(=O)[C@H](CCCNC(N)=O)NC(=O)[C@@H](NC(=O)OC(C)(C)C)C(C)C)cc3)OC[C@H]3O[C@@H](n4cnc5c(N)ncnc54)[C@H](F)[C@@H]3O2)cc1` (some centres unmarked) [CL793] as the compound, how does the “induction of type I IFNs in whole-blood assay (comparison in words)” value (Type I IFNs) read?
A: superior induction of type I interferons compared to the reference compound 2′3′-cGAMP

Q: For `CCCC(=O)N[C@H](C(=O)N[C@@H](C)C(=O)Nc1ccc(CSP2(=O)OC[C@H]3O[C@@H](n4cnc5c(N)ncnc54)[C@H](F)[C@@H]3OP(=O)(O)OC[C@H]3O[C@@H](n4cnc5c(O)ncnc54)C[C@@H]3O2)cc1)C(C)C` (some centres unmarked) [CL820], which “EC50 rank order (lipid chain length)” value (STING) is on record?
A: EC50 (CL820=C4-CL797)=EC50 (CL819=C2-CL797)=EC50 (CL797)

Q: Which results are given for `CCCCCCCC(=O)N[C@H](C(=O)N[C@@H](C)C(=O)Nc1ccc(CSP2(=O)OC[C@H]3O[C@@H](n4cnc5c(N)ncnc54)[C@H](F)[C@@H]3OP(=O)(O)OC[C@H]3O[C@@H](n4cnc5c(O)ncnc54)C[C@@H]3O2)cc1)C(C)C` (some centres unmarked) [CL821]?
A: EC50 (Type I IFNs): 7.1 µM; Z Ave (nm) [1]: 54.9 nm; PdI [1]: 0.27; EC50 rank order (lipid chain length) (STING): EC50 (CL821=C8-CL797)<EC50 (CL820=C4-CL797)

Q: With `CCCCCCCCCCCCCC(=O)OC(CCCCCCCCCCC)CC(=O)N[C@H](C(=O)N[C@@H](CCCNC(N)=O)C(=O)Nc1ccc(CSP2(=O)OC[C@H]3O[C@@H](n4cnc5c(N)ncnc54)[C@H](F)[C@@H]3OP(=O)(S)OC[C@H]3O[C@@H](n4cnc5c(O)ncnc54)[C@H](F)[C@@H]3O2)cc1)C(C)C` (some centres unmarked) [CL861] as the compound, how does the EC50 (Type I IFNs) read?
A: 0.01 µM

Q: What about the “self-organization in lipid-based nanoparticles / particle size” value [1] of the same compound?
A: can self-organize/assemble in lipid-based nanoparticles; also recorded: the size tends to be smaller, around the size of Small Unilamellar Vesicle

Q: And the “Z Ave (nm)” value [1]?
A: 36.8 nm

Q: And the PdI [1]?
A: 0.183

Q: For `Nc1ncnc2c1ncn2[C@@H]1O[C@@H]2COP(=O)(S)O[C@H]3C[C@H](n4cnc5c(=O)[nH]cnc54)O[C@@H]3COP(=O)(O)O[C@H]2[C@H]1F` (some centres unmarked) [CL797, reference compound], which EC50 (STING) is on record?
A: 8150 nM

Q: What about the “Fold ISG induction” value (STING; THP1-Dual cells) of the same compound?
A: 181 fold

Q: Which EC50 (STING) does the source give for `Nc1ncnc2c1ncn2[C@@H]1OC2COP(=O)(S)O[C@@H]3C(COP(=O)(O)O[C@H]2[C@H]1F)O[C@@H](n1cnc2c(=O)[nH]cnc21)[C@@H]3F` (some centres unmarked) [CL845, reference compound] here?
A: 4570 nM

Q: What about the “Fold ISG induction” value (STING; THP1-Dual cells) of the same compound?
A: 227 fold

Q: For `COC(=O)C1O[C@@H](Oc2ccc(CSP3(=O)OC[C@H]4O[C@@H](n5cnc6c(=O)[nH]cnc65)[C@H](F)[C@@H]4OP(=O)(O)OC[C@H]4O[C@@H](n5cnc6c(N)ncnc65)[C@H](F)[C@@H]4O3)cc2NC(=O)CCCCCN2C(=O)C=CC2=O)C(OC(C)=O)C(OC(C)=O)[C@@H]1OC(C)=O` (some centres unmarked) [CL847], which “Fold ISG induction” value (STING; THP1-Dual cells) is on record?
A: 132 fold

Q: For `CCCCCCCC(=O)N[C@H](C(=O)N[C@@H](C)C(=O)Nc1ccc(CSP2(=O)OC[C@H]3O[C@@H](n4cnc5c(N)ncnc54)[C@H](F)[C@@H]3OP(=O)(O)OC[C@H]3O[C@@H](n4cnc5c(O)ncnc54)[C@H](F)[C@@H]3O2)cc1)C(C)C` (some centres unmarked) [CL841], which EC50 (Type I IFNs) is on record?
A: 3.03 µM

Q: And the “Z Ave (nm)” value [1]?
A: 264.3 nm

Q: And the PdI [1]?
A: 0.475

Q: For `CCCCCCCC(=O)N[C@H](C(=O)N[C@@H](C)C(=O)Nc1ccc(CSP2(=O)OC[C@H]3O[C@@H](n4cnc5c(O)ncnc54)[C@H](F)[C@@H]3OP(=O)(SCc3ccc(NC(=O)[C@H](C)NC(=O)[C@@H](NC(=O)CCCCCCC)C(C)C)cc3)OC[C@H]3O[C@@H](n4cnc5c(N)ncnc54)[C@H](F)[C@@H]3O2)cc1)C(C)C` (some centres unmarked) [CL842], which EC50 (Type I IFNs) is on record?
A: 1.4 µM

Q: And the “self-organization in lipid-based nanoparticles / particle size” value [1]?
A: can self-organize/assemble in lipid-based nanoparticles

Q: What about the “Z Ave (nm)” value [1] of the same compound?
A: 184 nm

Q: And the PdI [1]?
A: 0.086
